Here are results for five molecules from patent EP4603105A1, “PHARMACEUTICAL COMPOSITION CONTAINING CYCLIC COMPOUND HAVING SELECTIVE KRAS INHIBITORY EFFECT AGAINST HRAS AND NRAS” (CHUGAI SEIYAKU KABUSHIKI KAISHA, priority 2022, dated 2024).

Assay [1] deals with GDP-bound KRAS wild-type protein (Homo sapiens, UniProt P01116). Briefly: Binding to KRAS by surface plasmon resonance (SPR), dissociation constant KD. The following applies: 1:1 binding model. The gist of the method: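 SPR, 30°C: Avi-biotin RAS·GDP captured via Biotin CAPture (~100–300 RU); running buffer HBS pH 7.4, 1 mM DTT, 10 mM MgCl2, 0.01% Tween 20, 10 µM GDP, 4% DMSO. Single-cycle kinetics, 100 µL/min, 75 s injections; 1:1 model → KD.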
GDP-bound KRAS wild-type protein, sequence (P01116 1-188 isoform P01116-2): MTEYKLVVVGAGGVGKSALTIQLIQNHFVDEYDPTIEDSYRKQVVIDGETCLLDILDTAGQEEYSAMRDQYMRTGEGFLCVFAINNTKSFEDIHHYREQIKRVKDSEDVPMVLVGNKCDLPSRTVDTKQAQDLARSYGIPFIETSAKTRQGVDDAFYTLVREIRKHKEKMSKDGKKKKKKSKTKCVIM
On the technique in general: In SPR one partner is held on a chip, and binding of the other changes the refractive index at the surface.

Assay [2] has as its target GDP-bound NRAS wild-type protein (Homo sapiens, UniProt P01111). Briefly: Binding to NRAS by surface plasmon resonance (SPR), KD and KD ratio to KRAS. The conditions noted are these: ratio of KD for GDP-bound NRAS wild-type protein to KD for KRAS. Put shortly: (§1)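 Affinity is measured by surface plasmon resonance at 30°C against captured, GDP-loaded RAS carrying a biotinylated Avi tag. Compounds are titrated by single-cycle kinetics, and KD comes from a 1:1 fit.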

The target in another assay is HRAS wild-type protein (Homo sapiens, UniProt P01112). Briefly: Binding to HRAS by surface plasmon resonance (SPR), KD and KD ratio to KRAS. The conditions noted are these: ratio of KD for HRAS wild-type protein to KD for KRAS. Put shortly: as §1
HRAS wild-type protein, sequence (P01112 whole entry): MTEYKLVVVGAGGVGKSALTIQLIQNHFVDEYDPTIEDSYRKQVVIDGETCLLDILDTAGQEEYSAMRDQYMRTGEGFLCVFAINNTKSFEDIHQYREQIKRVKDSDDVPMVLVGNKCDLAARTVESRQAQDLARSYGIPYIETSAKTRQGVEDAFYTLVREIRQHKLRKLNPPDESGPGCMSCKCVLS
Assay [3] relates to human lung cancer strain NCI-H441. It counts as cell-based. Put shortly:
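Readout: […] after the ATP-based reagent. Compound: serial dilutions in dimethyl sulfoxide.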

Where a SMILES comes first, the peptide text is derived from it. Bridges are numbered along the chain shown (N, C = ends). [ ]: non-standard residue; d: D form. The star is where a group is joined. hPhe(3-Cl-4-CF3) = N[C@@H](CCc1ccc(C(F)(F)F)c(Cl)c1)C(=O)O; NPrPhe(4-CF3) = CCCN[C@@H](Cc1ccc(C(F)(F)F)cc1)C(=O)O; Pro(4-spirocPr) = O=C(O)[C@@H]1CC2(CC2)CN1; Morpholine(3S-CO) = O=C(O)[C@@H]1COCCN1; NMeGly(cPent) = CN[C@H](C(=O)O)C1CCCC1; Gly(cPent) = N[C@H](C(=O)O)C1CCCC1; Hyp = O=C(O)[C@@H]1C[C@@H](O)CN1; NMeD = CN[C@@H](CC(=O)O)C(=O)O; NMeL = CN[C@@H](CC(C)C)C(=O)O; Morpholide = C1CN(*)CCO1; Ac5c = NC1(C(=O)O)CCCC1; Aze = O=C(O)[C@@H]1CCN1; Sar = CNCC(=O)O

GDP-bound NRAS wild-type protein, sequence (P01111 whole entry): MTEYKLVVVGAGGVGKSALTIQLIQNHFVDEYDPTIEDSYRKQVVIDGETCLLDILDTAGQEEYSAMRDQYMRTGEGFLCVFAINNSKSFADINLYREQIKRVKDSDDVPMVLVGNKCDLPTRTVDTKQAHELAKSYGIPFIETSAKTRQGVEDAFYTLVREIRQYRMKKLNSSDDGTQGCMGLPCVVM

Usually Kd stands for a measure of binding affinity in units of concentration. Read a low Kd as a tighter complex. Broadly, the IC50 is the concentration at which inhibition is half-maximal. Read a low IC50 as greater potency. Take `CCCN1C(=O)CN(C)C(=O)[C@@H]2CCN2C(=O)[C@H](C2CCCC2)NC(=O)[C@H](CC(C)C)N(C)C(=O)C[C@@H](C(=O)N2CCOCC2)N(C)C(=O)[C@H](C2CCCC2)N(C)C(=O)C2(CCCC2)NC(=O)[C@@H]2CCCN2C(=O)[C@H](CCc2ccc(C(F)(F)F)c(Cl)c2)NC(=O)CN(C)C(=O)[C@@H]1Cc1ccc(C(F)(F)F)cc1` [PP0306] ([NMeL][Gly(cPent)][Aze][Sar][NPrPhe(4-CF3)][Sar][hPhe(3-Cl-4-CF3)]P[Ac5c][NMeGly(cPent)][NMeD]-Morpholide; lactam N-11): in assay [1], the Kd came out at 1.2 nM. Besides, the “NRAS /KRAS” value in assay [2] is “B (a compound having 3 or more and less than 10 is denoted as B)”. In addition, the “HRAS /KRAS” value on HRAS wild-type protein was “B (a compound having 3 or more and less than 10 is denoted as B)”. The same molecule returned an IC50 in assay [3] of 142 nM.
In turn, `CCCN1C(=O)CN(C)C(=O)[C@@H]2CCN2C(=O)[C@H]([C@@H](C)CC)NC(=O)[C@H](CC(C)C)N(C)C(=O)C[C@@H](C(=O)N2CCOCC2)N(C)C(=O)[C@H](C2CCCC2)N(C)C(=O)C2(CCCC2)NC(=O)[C@@H]2CCN2C(=O)[C@H](CCc2ccc(C(F)(F)F)c(Cl)c2)NC(=O)CN(C)C(=O)[C@@H]1Cc1ccc(C(F)(F)F)cc1` [PP0307] ([NMeL]I[Aze][Sar][NPrPhe(4-CF3)][Sar][hPhe(3-Cl-4-CF3)][Aze][Ac5c][NMeGly(cPent)][NMeD]-Morpholide; lactam N-11) returned a dissociation constant Kd in assay [1] of 2.1 nM. Further, the “NRAS /KRAS” value in assay [2] is “B (a compound having 3 or more and less than 10 is denoted as B)”. Also, the “HRAS /KRAS” value on HRAS wild-type protein was “B (a compound having 3 or more and less than 10 is denoted as B)”. The same molecule displayed an IC50 in assay [3] of 205 nM.
Molecule `CCCN1C(=O)CN(C)C(=O)[C@@H]2CCN2C(=O)[C@H]([C@@H](C)CC)NC(=O)[C@H](CC(C)C)N(C)C(=O)C[C@@H](C(=O)N2CCOCC2)N(C)C(=O)[C@H](C2CCCC2)N(C)C(=O)C2(CCCC2)NC(=O)[C@@H]2CC3(CC3)CN2C(=O)[C@H](CCc2ccc(C(F)(F)F)c(Cl)c2)NC(=O)CN(C)C(=O)[C@@H]1Cc1ccc(C(F)(F)F)cc1` [PP0308] ([NMeL]I[Aze][Sar][NPrPhe(4-CF3)][Sar][hPhe(3-Cl-4-CF3)][Pro(4-spirocPr)][Ac5c][NMeGly(cPent)][NMeD]-Morpholide; lactam N-11) had a dissociation constant (Kd) in assay [1] of 1.1 nM. Further, in assay [2], the “NRAS /KRAS” value is “B (a compound having 3 or more and less than 10 is denoted as B)”. The “HRAS /KRAS” value at HRAS wild-type protein is “B (a compound having 3 or more and less than 10 is denoted as B)”. This molecule also yielded an IC50 in assay [3] of 56 nM.
`CCCN1C(=O)CN(C)C(=O)[C@@H]2CCN2C(=O)[C@H]([C@@H](C)CC)NC(=O)[C@H](CC(C)C)N(C)C(=O)C[C@@H](C(=O)N2CCOCC2)N(C)C(=O)[C@H](C2CCCC2)N(C)C(=O)C2(CCCC2)NC(=O)[C@@H]2C[C@@H](OC)CN2C(=O)[C@H](CCc2ccc(C(F)(F)F)c(Cl)c2)NC(=O)CN(C)C(=O)[C@@H]1Cc1ccc(C(F)(F)F)cc1` [PP0309] ([NMeL]I[Aze][Sar][NPrPhe(4-CF3)][Sar][hPhe(3-Cl-4-CF3)][Hyp](Me)[Ac5c][NMeGly(cPent)][NMeD]-Morpholide; lactam N-11) displayed a Kd in assay [1] of 0.29 nM. In addition, the “NRAS /KRAS” value in assay [2] is “B (a compound having 3 or more and less than 10 is denoted as B)”. Also, the “HRAS /KRAS” value at HRAS wild-type protein is “B (a compound having 3 or more and less than 10 is denoted as B)”. This molecule also displayed an IC50 in assay [3] of 11.7 nM.
As for `CCCN1C(=O)CN(C)C(=O)[C@@H]2CCN2C(=O)[C@H]([C@@H](C)CC)NC(=O)[C@H](CC(C)C)N(C)C(=O)C[C@@H](C(=O)N2CCOCC2)N(C)C(=O)[C@H](C2CCCC2)N(C)C(=O)C2(CCCC2)NC(=O)[C@@H]2COCCN2C(=O)[C@H](CCc2ccc(C(F)(F)F)c(Cl)c2)NC(=O)CN(C)C(=O)[C@@H]1Cc1ccc(C(F)(F)F)cc1` [PP0313] ([NMeL]I[Aze][Sar][NPrPhe(4-CF3)][Sar][hPhe(3-Cl-4-CF3)][Morpholine(3S-CO)][Ac5c][NMeGly(cPent)][NMeD]-Morpholide; lactam N-11), the Kd in assay [1] worked out at 2.2 nM. In addition, the “NRAS /KRAS” value in assay [2] is “B (a compound having 3 or more and less than 10 is denoted as B)”. Moreover, the “HRAS /KRAS” value at HRAS wild-type protein was “C (A compound having a KD ratio of 0.1 or more and less than 3 is denoted as C)”. In addition, in assay [3], the concentration for half-maximal inhibition (IC50) was 56.6 nM.
